{"source": "patent US7960544B2", "about": "“Useful indole compounds” (Ironwood Pharmaceuticals, Inc., priority 2005, dated 2011)", "origin": "cited, not measured here", "key": {"MCF-7 cells": {"tested_on": "MCF-7 cells", "settings": "up to 100 μM"}, "DAO": {"molecular_target": "DAO (Homo sapiens, UniProt P14920)", "sequence (P14920 whole entry)": "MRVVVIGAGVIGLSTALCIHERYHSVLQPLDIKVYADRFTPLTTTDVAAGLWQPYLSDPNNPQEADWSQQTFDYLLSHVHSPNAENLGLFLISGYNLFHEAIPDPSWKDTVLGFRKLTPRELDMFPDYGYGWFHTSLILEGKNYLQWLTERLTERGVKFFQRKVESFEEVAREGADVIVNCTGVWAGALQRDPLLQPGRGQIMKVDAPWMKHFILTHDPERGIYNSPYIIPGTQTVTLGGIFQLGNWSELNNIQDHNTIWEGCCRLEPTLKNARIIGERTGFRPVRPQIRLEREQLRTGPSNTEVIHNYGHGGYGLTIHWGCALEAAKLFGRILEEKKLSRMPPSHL"}, "CCR3": {"tested_on": "CCR3", "settings": "cross-desensitization"}}}
{"smiles": "CCCCC/C=C\\C/C=C\\C/C=C\\C/C=C\\CCCC(=O)NCCO", "note": "[anandamide]", "values": [{"measurement": "cell viability (as assessed by trypan blue)", "setting": "MCF-7 cells", "result": "No significant decrease in cell viability"}]}
{"smiles": "Cc1c(CC(=O)O)c2cc(O)ccc2n1C(=O)c1ccc(Cl)cc1", "note": "[desmethyl metabolite, (1-(4-chlorobenzoyl)-5-hydroxy-2-methyl-1H-indol-3-yl]acetic acid]", "values": [{"measurement": "ability to inhibit prostaglandin synthesis", "setting": "prostaglandin synthesis", "result": "has some ability to inhibit prostaglandin synthesis"}]}
{"smiles": "COc1ccc2c(c1)c(CC(=O)O)c(C)n2C(=O)c1ccc(Cl)cc1", "note": "[indomethacin]", "values": [{"measurement": "inhibition of DAO", "setting": "DAO", "result": "inhibitor of DAO"}, {"measurement": "expression of CCR3, the receptor for eotaxin", "setting": "CCR3", "result": "reduces expression of CCR3"}]}
